Columns and labels:
Assay type in all cases: cell-based
[1] = system: human malignant melanoma A375.S2 cells; experiment: Cell viability, trypan blue exclusion (A375.S2); settings: 24 h, FIG. 1
Procedure: (§1) Human malignant melanoma A375.S2 cell line was obtained from the American Type Culture Collection (ATCC, USA). A375.S2 cells were grown in minimum essential medium supplemented with 10% fetal bovine serum, 100 U/mL of penicillin, and 100 μg/mL of streptomycin (Life Technologies, USA). PC-3 cells (hormone-independent human prostate cancer cells) were cultured in Ham's F12K medium supplemented with 7% fetal bovine serum, 100 U/mL of penicillin, and 100 μg/mL of streptomycin (Life Technologies, USA). Cells were cultured at 37° C. in a 5% CO2 incubator.
(§2) Seeding cells (2.5×10^5 cells/well) in 6-well plates and incubated with different concentrations of M1 (10, 20 and 40 μM), cisplatin (50 μM) or vehicle for 24 h. Cells were detached by trypsinization and the cell numbers were counted by trypan blue exclusion method.
To investigates the effect of M1 on the inhibition of human malignant melanoma cell growth, A375 cells were cultured with various concentration of M1.

[2] = system: human malignant melanoma A375.S2 cells; experiment: Colony formation assay (A375.S2); settings: M1 10, 20 and 40 μM, 10 days; FIG. 2
Procedure: as §1
(§3) Plate 500 cells per well into 6-well plates and incubated with different M1 concentrations (10, 20, and 40 μM) or vehicle for 10 days. Cells were fixed in 4% paraformaldehyde after washing with cold PBS twice, and stained with 0.5% crystal violet 10 min at room temperature.
To investigates the effect of M1 on the reduction of colony formation ability of melanoma cells, A375. S2 cells were subjected to colony formation assay with various concentration of M1.

[3] = system: human malignant melanoma A375.S2 cells; experiment: Wound healing assay (A375.S2); settings: M1 20 or 40 μM, 24 h, vs control; FIG. 3
Procedure: as §1
(§4) Cells were seeded at 6×10^5 into 6-well plates and incubated for 24 h. Then used a sterile 200-μl pipette tip to create a straight gap of constant width, and each well was washed with sterile PBS. Next, the cells were incubated with various concentrations of M1 (10, 20, and 40 μM) or vehicle. The cells were photographed at 0 and 24 h under a microscope at 100× magnification.
To investigates the effect of M1 on the inhibition of migration ability of melanoma cells, A375.S2 cells were subjected to the wound healing assay with various concentration of M1.

[4] = system: human malignant melanoma A375.S2 cells; experiment: Annexin V/PI apoptosis flow cytometry (A375.S2); settings: 24 h, FIG. 4
Procedure: as §1
A375.S2 cells were seeded at 2.5×10^5 into 6-well plates, and incubated with M1 (40 μM), cisplatin (50 μM) or vehicle for 24 h. To perform apoptosis using an Annexin V-FITC/PI apoptosis detection kit (BD Biosciences, USA) according to the manufacturer's instructions, and then analyzed by flow cytometry (BD Biosciences).
(§5) To further investigate mechanism of action of M1, we used Annexin V/PI double staining by flow cytometry and crucial protein expression by Western blot analysis to measured targeting hallmarks of apoptosis.

[5] = system: human malignant melanoma A375.S2 cells; experiment: Western blot of apoptosis-related proteins (A375.S2); settings: A375.S2, M1 10, 20 and 40 μM, 24 h, FIGS. 5A, 5B
Procedure: as §1
(§6) Plate 4×10^5 cells per well into 6-cm dish, and incubated with different concentrations of M1 (10, 20 and 40 μM), cisplatin (50 μM) or vehicle for 24 h. The cells were exacted by disruption in RIPA buffer (Sigma-Aldrich, Germany) in the presence of protease inhibitor cocktail. Each protein sample was run on a 12% SDS-PAGE gel and transferred to PVDF membrane, which was then incubated for 1 h at room temperature in blocking buffer and then overnight at 4° C. with primary antibodies against caspase-3, caspase-9 (Cell Signaling Technology, USA), Bax, Bcl-2 or β-actin (Santa Cruz, USA). The membrane was incubated for 1 h at room temperature with HRP-conjugated secondary antibodies. The proteins were detected using enhanced chemiluminescence reagent (GE, UK).
as §5

[6] = system: human prostate cancer PC-3 cells; experiment: Cell viability, trypan blue exclusion (PC-3); settings: M1 10, 20 and 40 μM, 24 h, dose-dependent; FIG. 6
Procedure: as §1, §2
Plate human prostatic cancer cell line PC-3 2.5×10^5 per 6-well plates and cultured in Ham's F12K medium supplemented with 7% fetal bovine serum, 100 U/mL of penicillin, and 100 μg/mL of streptomycin (Life Technologies, USA). Cells were cultured overnight at 37° C. in a 5% CO2 incubator, and then treated with different concentrations of M1 (10, 20 and 40 μM) or vehicle for 24 h, and the cell numbers were counted by trypan blue exclusion method. […] The data are expressed as the means±SEM for three separate experiments. *p<0.05, **p<0.01. […]

[7] = system: human prostate cancer PC-3 cells; experiment: Colony formation assay (PC-3); settings: M1 10, 20 and 40 μM, 10 days, dose-dependent, vs vehicle; FIG. 7
Procedure: as §1, §3
Seeding 500 cells per 6-well plates and treated for 10 days with different concentrations of M1 (10, 20, and 40 μM) or vehicle. The cells were fixed in 4% paraformaldehyde for 15 min, after washing with cold PBS twice, and stained with 0.5% crystal violet 10 min at room temperature. […] The data are expressed as the means±SEM for three separate experiments. *p<0.05, ***p<0.005. (One-way ANOVA and subsequent Scheffe's test).

[8] = system: human prostate cancer PC-3 cells; experiment: Wound healing assay (PC-3); settings: M1 20 or 40 μM, 24 h, vs vehicle; FIG. 8
Procedure: as §1, §4
Next, we performed whether M1 reduces the migration ability by wound healing assay in PC-3 cells. Cells were seeded at 6×10^5 per 6-well plates in culture medium and were grown overnight at 37° C. in a 5% CO2 incubator. Each well was scratched with sterile 200-μl pipette tip in the cell monolayer, and washed with sterile PBS twice. […] The data are expressed as the means±SEM for three separate experiments. *p<0.05, ***p<0.005. […]

[9] = system: human prostate cancer PC-3 cells; experiment: Annexin V/PI apoptosis flow cytometry (PC-3); settings: M1 40 μM, 24 h, vs vehicle; FIG. 9
Procedure: as §1
(§7) Furthermore, to investigate mechanisms underlying the apoptosis-inducing activity of M1, we detected Annexin V/PI double staining by flow cytometry and apoptosis related protein expression by Western blot. PC-3 cells were plate 2.5×10^5 per 6-well plates, and incubated with M1 (40 μM) or vehicle for 24 h. The cells were harvested by gently trypsinizing and wash with ice-PBS twice, then stained with Annexin V-FITC/PI apoptosis detection kit (BD Biosciences, USA) according to the manufacturer's instructions and measured using a flow cytometer within 1 hour. […] The data are expressed as the means±SEM for three separate experiments. ***p<0.005. (One-way ANOVA and subsequent Scheffe's test).

[10] = system: human prostate cancer PC-3 cells; experiment: Western blot of apoptosis-related proteins (PC-3); settings: PC-3, M1 10, 20 and 40 μM, 24 h, FIGS. 10A, 10B
Procedure: as §1, §6, §7

SMILES	cell numbers of A375.S2 cells ([1]; M1 10, 20 and 40 μM, vs control)	numbers of colonies of A375.S2 cells [2]	cell migration ability of A375.S2 cells [3]	percentage of A375.S2 cells with Annexin V/PI double staining ([4]; M1 40 μM)	Bcl-2 protein expression ([5]; dose-dependent)	pro-caspase-3 protein expression ([5]; dose-dependent)	pro-caspase-9 protein expression ([5]; dose-dependent)	levels of caspase-3 [5]	levels of caspase-9 [5]	cell numbers of PC-3 cells [6]	colony formation ability of PC-3 cells [7]	cell migration ability of PC-3 cells [8]	percentage of PC-3 cells with Annexin V/PI double staining [9]	Bax/Bc1-2 ratio ([10]; dose-dependent)	protein levels of caspase-9 ([10]; dose-dependent)	pro-caspase-3 protein expression [10]	pro-caspase-9 protein expression [10]	cell numbers of A375.S2 cells ([1]; cisplatin 50 μM, positive control)	percentage of A375.S2 cells with Annexin V/PI double staining ([4]; cisplatin 50 μM)
CC(C)=CCC[C@](C)(O[C@@H]1OC(CO)[C@@H](O)[C@@H](O)C1O)[C@H]1CC[C@]2(C)C1[C@H](O)CC1[C@@]3(C)CC[C@H](O)C(C)(C)C3CC[C@]12C (stereo partly drawn) [M1, 20-O-β-D-glucopyranosyl-20(S)-protopanaxadiol]	decreased the cell numbers	reduced dose-dependently	markedly decreased the cell migration ability	greatly increased the percentage	decrease	decrease	decrease	significantly increased	significantly increased	significantly decrease cell numbers	inhibited the colony formation ability	significantly decreased the cell migration ability	greatly increased the percentage	increased	increased	significantly decreased	significantly decreased	–	–
N.N.[Cl][Pt][Cl] [cisplatin, reference compound]	–	–	–	–	–	–	–	–	–	–	–	–	–	–	–	–	–	decreased the cell numbers	greatly increased the percentage
